The results in this text go back to PubChem BioAssay (NCI).

SMILES strings stand for the structures.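 Cultured in 96-well plates, cells were exposed to test compound for 48 hours across five concentrations. GI50 is the concentration that inhibits growth by half. The concentration for full growth arrest is given as TGI.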

Among the test systems are U251 CNS; SF-268 CNS; NCI-H226 lung; HCT-15 colon; NCI-H460 lung; RPMI-8226 leukemia; MOLT-4 leukemia; OVCAR-5 ovarian; UACC-62 melanoma; RXF 393 renal.
Test in all cases: NCI-60 cell line screen, 48 h

`COC(=O)c1oc2c(C(=O)/C=C/c3ccc(OC)cc3)c(OCCN(C)C)ccc2c1C`: the GI50 was 5.72 µM in the experiment on U251 CNS; 5.63 µM in the experiment on SF-268 CNS; 13.1 µM with NCI-H226 lung; 4.13 µM in the experiment on HCT-15 colon; 4.56 µM in the experiment with NCI-H460 lung; 3.83 µM in the experiment on RPMI-8226 leukemia. The GI50 with MOLT-4 leukemia is 2590 nM; in the experiment on OVCAR-5 ovarian it was 15.8 µM; with UACC-62 melanoma, 12.3 µM; with RXF 393 renal it was 3910 nM. For the same molecule, the TGI was 19.3 µM with U251 CNS; 20.5 µM in the experiment with SF-268 CNS; 27.8 µM with NCI-H226 lung; 16.8 µM in the experiment on HCT-15 colon; 17.5 µM in the experiment with NCI-H460 lung; 20.5 µM in the experiment with RPMI-8226 leukemia. In addition, the TGI in the experiment with MOLT-4 leukemia is 7.47 µM; with OVCAR-5 ovarian, 32.9 µM; in the experiment with UACC-62 melanoma, 27.1 µM; with RXF 393 renal, 14.6 µM.

`Cc1cc(Nc2nc(N[C@@H](C)c3ncc(F)cn3)ncc2Cl)n[nH]1`: the GI50 is 24.5 µM in the experiment with U251 CNS; 18.2 µM in the experiment with SF-268 CNS; 1.14 µM with NCI-H226 lung; 24.9 µM with HCT-15 colon; 22.2 µM with NCI-H460 lung; more than 62 µM in the experiment with RPMI-8226 leukemia. The GI50 with MOLT-4 leukemia is 60700 nM; in the experiment on OVCAR-5 ovarian, 38.4 µM; in the experiment on UACC-62 melanoma it was 11.7 µM; in the experiment on RXF 393 renal, 5070 nM. For the same molecule, the TGI is more than 100 µM in the experiment with U251 CNS; more than 82.4 µM with SF-268 CNS; 54.8 µM in the experiment with NCI-H226 lung; more than 100 µM with HCT-15 colon; more than 100 µM with NCI-H460 lung; more than 100 µM in the experiment with RPMI-8226 leukemia. Besides, the TGI in the experiment with MOLT-4 leukemia is more than 100 µM; with OVCAR-5 ovarian, more than 100 µM; in the experiment on UACC-62 melanoma it was 88 µM; with RXF 393 renal, 19.9 µM.

As to `CC(=O)NNc1nc(C)c(C(/C=C/c2ccccc2O)=N/N=C(N)N)s1`, the TGI in the experiment with U251 CNS, in the experiment with SF-268 CNS, in the experiment on NCI-H226 lung, with HCT-15 colon, in the experiment with NCI-H460 lung and in the experiment on RPMI-8226 leukemia was more than 100 µM in each case. Besides, the TGI with MOLT-4 leukemia, in the experiment on OVCAR-5 ovarian, in the experiment on UACC-62 melanoma and with RXF 393 renal was more than 100 µM each time.

Regarding `NS(=O)(=O)c1cc(C(=O)O)c(O)c2ccccc12`, the TGI in the experiment with U251 CNS, with SF-268 CNS, in the experiment with NCI-H226 lung, with HCT-15 colon, in the experiment on NCI-H460 lung and in the experiment with RPMI-8226 leukemia was more than 100 µM each time. Besides, the TGI in the experiment on MOLT-4 leukemia, in the experiment with OVCAR-5 ovarian, with UACC-62 melanoma and in the experiment on RXF 393 renal was more than 100 µM in each case.

As to `Cn1cc(-c2cnn3c(N)c(Br)c(C4CCCNC4)nc23)cn1` (stereo not drawn), the GI50 is 20.2 µM in the experiment with U251 CNS; 15.2 µM in the experiment on SF-268 CNS; 13.9 µM in the experiment on NCI-H226 lung; 14.2 µM in the experiment on HCT-15 colon; 6.54 µM in the experiment on NCI-H460 lung; 4.7 µM in the experiment with RPMI-8226 leukemia. In addition, the GI50 in the experiment with MOLT-4 leukemia was 575 nM; in the experiment on OVCAR-5 ovarian it was 6.96 µM; in the experiment with UACC-62 melanoma, 8.9 µM; in the experiment on RXF 393 renal it was 257 nM. For the same molecule, the TGI is more than 100 µM with U251 CNS; more than 100 µM in the experiment on SF-268 CNS; more than 96 µM in the experiment with NCI-H226 lung; more than 79.9 µM with HCT-15 colon; 30.7 µM in the experiment on NCI-H460 lung; 27.2 µM in the experiment with RPMI-8226 leukemia. Moreover, the TGI in the experiment with MOLT-4 leukemia is 23.2 µM; in the experiment with OVCAR-5 ovarian, more than 73 µM; in the experiment on UACC-62 melanoma, 28.8 µM; in the experiment with RXF 393 renal, 0.799 µM.

As for `CN(/N=C/c1ccnc2ccccc12)c1c([N+](=O)[O-])cc([N+](=O)[O-])cc1[N+](=O)[O-]`, the TGI with U251 CNS, in the experiment on SF-268 CNS, in the experiment with NCI-H226 lung, in the experiment with HCT-15 colon, in the experiment on NCI-H460 lung and in the experiment on RPMI-8226 leukemia was more than 100 µM throughout. Moreover, the TGI with MOLT-4 leukemia, in the experiment with OVCAR-5 ovarian, with UACC-62 melanoma and with RXF 393 renal was more than 100 µM each time.

In the case of `N/N=C(/Cc1nc2ccc(C(=O)c3ccccc3)cc2[nH]c1=O)C(=O)Nc1ccc([N+](=O)[O-])cc1[N+](=O)[O-]`, the GI50 in the experiment on U251 CNS, in the experiment with SF-268 CNS, in the experiment with NCI-H226 lung, in the experiment with HCT-15 colon, in the experiment with NCI-H460 lung and in the experiment with RPMI-8226 leukemia was more than 100 µM in each case. Also, the GI50 in the experiment on MOLT-4 leukemia was more than 100000 nM; in the experiment with OVCAR-5 ovarian, more than 100 µM. Besides, the TGI in the experiment on U251 CNS, with SF-268 CNS, in the experiment on NCI-H226 lung, with HCT-15 colon, in the experiment on NCI-H460 lung and with RPMI-8226 leukemia was more than 100 µM each time. The TGI in the experiment with MOLT-4 leukemia, in the experiment with OVCAR-5 ovarian, with UACC-62 melanoma and in the experiment on RXF 393 renal was more than 100 µM each time.

Consider `Oc1c(Cl)cc(Cl)c2ccc(Cn3cc(-c4ccc(C(F)(F)F)cc4)nn3)nc12`, for which the GI50 in the experiment with U251 CNS was 4.43 µM; in the experiment with SF-268 CNS, 4.64 µM; with NCI-H226 lung, 5.64 µM; in the experiment on HCT-15 colon, 1.42 µM; in the experiment on NCI-H460 lung it was 18.9 µM; with RPMI-8226 leukemia it was 1.25 µM. In addition, the GI50 is 825 nM in the experiment with MOLT-4 leukemia, 2.27 µM in the experiment on OVCAR-5 ovarian, 2.61 µM with UACC-62 melanoma and 402 nM with RXF 393 renal. Besides, the TGI in the experiment on U251 CNS was determined as 17.2 µM; with SF-268 CNS it was 20.1 µM; in the experiment with NCI-H226 lung, 26.7 µM; with HCT-15 colon, 3.3 µM; in the experiment on NCI-H460 lung, 37.3 µM; with RPMI-8226 leukemia, 6.33 µM. Further, the TGI with MOLT-4 leukemia was 8.8 µM; in the experiment on OVCAR-5 ovarian it was 7.59 µM; in the experiment with UACC-62 melanoma, 11.9 µM; in the experiment with RXF 393 renal, 1.79 µM.

Regarding `Cc1nc2c(o1)C(=Nc1ccccc1)c1nc(C)oc1C2=Nc1ccccc1`, the TGI was 33.1 µM in the experiment with U251 CNS; 47.9 µM in the experiment with SF-268 CNS; 53.6 µM in the experiment with NCI-H226 lung; more than 100 µM with HCT-15 colon; more than 100 µM with NCI-H460 lung; more than 100 µM with RPMI-8226 leukemia. Besides, the TGI is 72.6 µM with MOLT-4 leukemia, 92.4 µM in the experiment with OVCAR-5 ovarian, 39.4 µM with UACC-62 melanoma and 37.5 µM with RXF 393 renal.
